This is an account of results in PubChem BioAssay AID1996.

What is called kinetic solubility is the concentration staying in solution when a stock, usually in DMSO, is diluted into the medium.

Values after ≈ are worked out from the molar mass of the structure shown.

The conditions of the data set: buffer; pH 7.4; 200.0 µM.
For `CCOC(=O)N1CCN(CCC(=O)Nc2ccc(F)c(F)c2)CC1`, the solubility (kinetic) is more than 51.2 µg/mL. Under `O=C(Cc1ccc([N+](=O)[O-])cc1)NCC1CCCO1` (configuration not stated) stands more than 39.6 µg/mL; under `COc1ccccc1NS(=O)(=O)c1cc(NC(=O)c2cc(F)c(F)c(F)c2F)ccc1N1CCOCC1`, 3.6 µg/mL (≈ 6.67 µM); under `CC(=O)NCCc1nc2cc(NC(=O)Nc3ccccc3)ccc2n1C`, more than 52.7 µg/mL. Under `O=C(CCc1ccccc1)Oc1ccccc1[N+](=O)[O-]` stands 5.2 µg/mL (≈ 19.2 µM); under `O=Cc1c(C(=O)O)n(Cc2ccc(F)cc2Cl)c2ccccc12`, more than 49.8 µg/mL.

As to `Cn1c(=O)n(C)c2cc(NS(=O)(=O)c3ccccc3)ccc21`, the kinetic solubility came out at 35.5 µg/mL (≈ 112 µM).

As for `CC(C(=O)c1ccccc1)[n+]1cccc(C(N)=O)c1.[Br-]` (configuration not stated), the solubility (kinetic) is more than 50.3 µg/mL.

`O=C(c1ccccc1NS(=O)(=O)c1ccc(F)cc1F)N1CCCCC1` returned a solubility (kinetic) of more than 57.1 µg/mL. `COCC(=O)Nc1ccc(S(=O)(=O)N2CCCC2)cc1` had a kinetic solubility of more than 44.8 µg/mL. As for `Cc1ccc(CNS(=O)(=O)c2c(C)[nH]c(=O)[nH]c2=O)cc1`, the figure is more than 46.4 µg/mL; as for `Cc1nc(SC(C)C(=O)NCc2ccc3c(c2)OCO3)nc(C)c1C` (configuration not stated), more than 53.9 µg/mL; as for `COc1ccc2oc(=O)cc(CN3CCOCC3)c2c1`, 39.5 µg/mL (≈ 143 µM). The compound `COc1ccccc1NC(=O)/C=C\c1ccco1` displayed a solubility (kinetic) of 25.8 µg/mL (≈ 106 µM). As for `O=C(CCNc1ccc(Br)cc1)c1cccc([N+](=O)[O-])c1`, the figure is 4.6 µg/mL (≈ 13.2 µM). As for `O=C(NCc1ccco1)c1ccc([N+](=O)[O-])cc1Cl`, the figure is 40 µg/mL (≈ 143 µM). Under `CC1Oc2ccccc2N(CC(=O)NCc2ccc3c(c2)OCO3)C1=O` (configuration not stated) stands 18.9 µg/mL (≈ 53.3 µM). Compound `CCOC(=O)CN1C(=O)S/C(=C/c2ccc(C)o2)C1=O` registered a kinetic solubility of 29.2 µg/mL (≈ 98.9 µM). As for `Cc1cc(C)nc(NC(N)=S)n1`, the figure is 10.4 µg/mL (≈ 57.1 µM). Under `O=C(c1ccc2c(c1)OCCCO2)N1CCCCC1` stands 28.6 µg/mL (≈ 109 µM); under `Cc1cc(C)n(/C(=C/N(C)C)C(=O)c2ccccc2)n1`, more than 40.4 µg/mL.

In the case of `O=C(O)C1C2C=CC(C2)C1C(=O)NCCCN1CCCC1=O` (configuration not stated), the kinetic solubility came to 44.2 µg/mL (≈ 144 µM). Under `CCOC(=O)c1c(C)nsc1NC(=O)C1CCCCC1` stands 8.3 µg/mL (≈ 28 µM). As for `CC1(c2ccc3noc(-c4cccc(F)c4)c3c2)OCCO1`, the figure is less than 0.6 µg/mL; as for `Cc1ccc(N2C(=O)CCC2(C#N)c2ccccc2)cc1` (configuration not stated), more than 41.5 µg/mL. With `CCOC(=O)CC1C(=O)NCCN1S(=O)(=O)c1ccc(C)cc1` (configuration not stated), the solubility (kinetic) was more than 51.1 µg/mL. As for `Cc1cc(NC(=O)CSc2nccn2-c2ccc([N+](=O)[O-])cc2)no1`, the figure is 33.8 µg/mL (≈ 94.1 µM); as for `Cc1ccc(S(=O)(=O)NCC(=O)OCCOc2ccccc2F)cc1`, 21.5 µg/mL (≈ 58.5 µM); as for `O=C(c1ccc2nccnc2c1)N1CCN(c2ccccc2)CC1`, more than 47.8 µg/mL. The compound `CSc1ncccc1C(=O)OCC(=O)NC1CCC(C)CC1` (configuration not stated) had a kinetic solubility of 16.4 µg/mL (≈ 50.9 µM). As for `O=C(NCc1ccccc1F)C(c1ccccc1)c1ccccc1`, the figure is 0.9 µg/mL (≈ 2.82 µM). Under `N#Cc1ccccc1S(=O)(=O)N1CCN(C(=O)C2CCCC2)CC1` stands more than 52.1 µg/mL; under `O=[N+]([O-])c1ccccc1S(=O)(=O)N/C(=N/S(=O)(=O)c1ccccc1)c1ccccc1`, more than 66.8 µg/mL. In the case of `COc1ccc(N2CC(C(=O)NC3=NCCS3)CC2=O)cc1` (configuration not stated), the solubility (kinetic) was more than 47.9 µg/mL. `CCCC(=O)Nc1ccc(C(=O)COC(=O)c2cc(C)oc2C)cc1` gave a kinetic solubility of 6.7 µg/mL (≈ 19.5 µM). As for `O=C(c1ccc([N+](=O)[O-])cc1)N1CCC(Cc2ccccc2)CC1`, the figure is 27.5 µg/mL (≈ 84.8 µM); as for `COc1cc(OC)cc(-c2nc(-c3cccs3)no2)c1`, less than 0.3 µg/mL; as for `COC(=O)c1ccc(CO/N=C/c2ccc(OC)cc2OC)cc1`, less than 0.7 µg/mL.

Compound `CCc1ccccc1NC(=O)CSc1nc(C)c(C)o1` registered a kinetic solubility of more than 43.6 µg/mL. Under `COc1ccc(OC)c(C2NC(=O)CCC2[N+](=O)[O-])c1` (configuration not stated) stands 40.1 µg/mL (≈ 143 µM); under `CC(=O)c1ccc(N2CCN(C(C)C(=O)Nc3ccc4c(c3)OCCO4)CC2)cc1` (configuration not stated), 5.1 µg/mL (≈ 12.5 µM). As for `Cc1ccc(CC(=O)NCCCn2ccnc2)cc1`, the figure is more than 38.6 µg/mL; as for `O=c1c2ccccc2nc(-c2ccccc2F)n1-c1ccccc1`, 45.5 µg/mL (≈ 144 µM). As for `CCOc1ccc(NC(=O)CN(C)S(=O)(=O)c2cnc[nH]2)cc1`, the figure is more than 50.8 µg/mL; as for `O=C(Cc1cccs1)NC(Cc1c[nH]c2ccccc12)C(=O)O` (configuration not stated), more than 49.3 µg/mL; as for `COc1ccc2cc(C(=O)NCC3CCCO3)[nH]c2c1` (configuration not stated), more than 41.1 µg/mL. `COc1ccc(OC)c(NC(=O)COC(=O)CCNc2ccccc2OC)c1` had a kinetic solubility of 40.8 µg/mL (≈ 105 µM). `Cc1ccc(COC(=O)c2ccc3ccccc3n2)cc1`: the kinetic solubility worked out at 7.6 µg/mL (≈ 27.4 µM). Under `COc1ccc(OCCNS(=O)(=O)c2cccc([N+](=O)[O-])c2)cc1` stands 16.4 µg/mL (≈ 46.5 µM); under `COc1ccc(S(=O)(=O)NCCCN2CCOCC2)cc1F`, more than 49.9 µg/mL. Under `O=C(NCc1ccc2c(c1)OCO2)Nc1ccc(F)cc1` stands 3.1 µg/mL (≈ 10.8 µM); under `COc1ccc(C2C(C#N)=C(N)Oc3cc(O)ccc32)cc1C` (configuration not stated), 31.5 µg/mL (≈ 102 µM); under `Nc1cccc(C(=O)N/N=C/c2ccsc2)c1`, more than 36.8 µg/mL. As for `Cc1ccc(S(=O)(=O)N2CCN(c3ccccn3)CC2)cc1`, the figure is 0.3 µg/mL (≈ 0.945 µM); as for `O=C(COC(=O)c1ccc(O)cc1)NC(c1ccccc1)c1ccccc1`, 1.7 µg/mL (≈ 4.7 µM); as for `COc1ccc(NC(=O)CN(C)C(=O)c2ccc(=O)[nH]c2)cc1`, more than 47.3 µg/mL.

`OCCNc1nc(Cl)nc(NCc2ccco2)n1` had a solubility (kinetic) of more than 40.5 µg/mL. In turn, `CCN(CC(=O)Nc1c(F)cccc1F)C(=O)c1ccccn1` had a kinetic solubility of more than 47.9 µg/mL. Under `Cc1oc(S(=O)(=O)N2CCCC2)cc1C(=O)Nc1ccc(F)cc1` stands 1.5 µg/mL (≈ 4.26 µM); under `COc1ccc2cc(C#N)c(N3CCOCC3)nc2c1`, 4.2 µg/mL (≈ 15.6 µM); under `O=C(NCCCn1ccnc1)c1cccc(Br)c1`, 46.2 µg/mL (≈ 150 µM). Under `O=C(Nc1ccc(NC(=O)c2cccs2)cc1)c1cccnc1` stands 0.4 µg/mL (≈ 1.24 µM). Under `COc1ccccc1N1CCN(CC(=O)Nc2nccs2)CC1` stands more than 49.9 µg/mL.

`CC(C)C(=O)Nc1cc2c3c(c1)CCN3C(=O)CC2` yielded a kinetic solubility of 38.7 µg/mL (≈ 150 µM).

As to `Cc1csc2c(=O)sc(NC(=O)c3ccco3)nc12`, the solubility (kinetic) came out at 4.5 µg/mL (≈ 15.4 µM). As for `C[N+]1(C)C2CCC1CC(OC(=O)c1ccco1)C2.[Br-]` (configuration not stated), the figure is 48.5 µg/mL. Under `CSc1ccc(Cl)c(C(=O)N2CCN(CC(=O)N3CCCC3)CC2)c1` stands more than 57.3 µg/mL; under `COCC(C)N1CC(O)=C(c2nc(-c3ccc(Cl)cc3)cs2)C1=N` (configuration not stated), 1.3 µg/mL (≈ 3.57 µM). As for `CC1CN(c2ccnc3cc(Cl)ccc23)CC(C)O1` (configuration not stated), the figure is more than 41.5 µg/mL. `O=C(Nc1ccc(F)cc1)Nc1ccc2ccccc2n1`: the kinetic solubility was less than 0.2 µg/mL. As for `CCc1nc2sc(C(C)=O)c(N)c2c2c1CCCC2`, the figure is 1.1 µg/mL (≈ 4.01 µM); as for `COc1ccc(C2C(C(C)=O)=C(O)C(=O)N2c2ccccn2)cc1` (configuration not stated), more than 48.7 µg/mL; as for `CC(=O)NC(c1ccc(C(C)C)cc1)c1c(O)ccc2ccccc12` (configuration not stated), less than 0.7 µg/mL.

Compound `Cc1cc(C)c(C)c(S(=O)(=O)NCCCN2CCOCC2)c1C` showed a solubility (kinetic) of more than 51.1 µg/mL. Take `COCCn1c(-c2cccs2)nc2nc3ccccc3nc21`: the kinetic solubility worked out at 39.7 µg/mL (≈ 128 µM). Under `COc1ccccc1S(=O)(=O)N1CCNC(=O)C1` stands more than 40.5 µg/mL; under `Cc1cc(C(=O)OCC(=O)N2CCC(C)CC2)c2ccccc2n1`, more than 49 µg/mL; under `O=S(=O)(Nc1ccccc1N1CCCCC1)c1cccs1`, 1.2 µg/mL (≈ 3.72 µM). Under `O=C(Cn1cc([N+](=O)[O-])ccc1=O)N1CCc2ccccc2C1` stands more than 47 µg/mL.

In the case of `N/C(=N\c1nc2ccccc2o1)NC(=O)c1ccccc1Br`, the solubility (kinetic) is less than 0.2 µg/mL.

Consider `Cc1nc(C)c(C(=O)OC(C)C(=O)Nc2ccc(F)cc2)s1` (configuration not stated), for which the kinetic solubility was more than 48.4 µg/mL.

Regarding `Cc1ccc(C(=O)NC2CC(C)(C)NC(C)(C)C2)cc1Cl`, the solubility (kinetic) was found to be 43.6 µg/mL (≈ 141 µM). Under `CCc1ccccc1NC(=O)Nc1ccon1` stands 29.1 µg/mL (≈ 126 µM). Under `O=[N+]([O-])c1ccccc1S(=O)(=O)Nc1cccc(S(=O)(=O)N2CCCC2)c1` stands more than 61.7 µg/mL; under `Cc1cccc(C(=O)OCC(=O)N(C)c2ccccc2)c1C`, more than 44.6 µg/mL. Under `COc1ccc(Nc2nc(N)c(C(=O)c3ccc(OC)cc3)s2)cc1` stands 1.4 µg/mL (≈ 3.94 µM); under `CSc1nccc(-c2c(-c3ccc(Cl)cc3)noc2C)n1`, 4.6 µg/mL (≈ 14.5 µM); under `Cc1ccc(C(=O)NCC(=O)NCCCc2ccccc2)cc1`, more than 46.6 µg/mL. The compound `Cc1cc(NCc2ccc(F)cc2)nc2cc(Cl)ccc12` displayed a kinetic solubility of 0.8 µg/mL (≈ 2.66 µM). Under `Cc1ccc(C(=O)Nc2ccccc2C(=O)N2CCCCCC2)cc1` stands more than 50.5 µg/mL. Under `COc1cccc(C(=O)N2CCOCC2)c1` stands 32.5 µg/mL (≈ 147 µM); under `CCN(CC)C(=O)c1ccc(COc2ccccc2Cl)o1`, 45.5 µg/mL (≈ 148 µM).

As for `Cc1ccc(S(=O)(=O)CCC(=O)N2CCN(c3ccccc3O)CC2)cc1`, the kinetic solubility amounted to 35.9 µg/mL (≈ 92.4 µM). As for `Cc1onc(-c2c(Cl)cccc2Cl)c1/C(N)=N/OC(=O)C1CC1`, the figure is 47.1 µg/mL (≈ 133 µM); as for `CC(=O)N(Cc1ccccc1)Cc1nc2sc(C)c(C)c2c(=O)[nH]1`, 47.5 µg/mL (≈ 139 µM); as for `COC(=O)c1scc(C)c1NC(=O)c1cccc(C#N)c1`, more than 45 µg/mL.

`NS(=O)(=O)c1ccc(CNC(=O)Cc2cccs2)cc1` yielded a solubility (kinetic) of 45.1 µg/mL (≈ 145 µM). Under `Cn1cc([N+](=O)[O-])c(C(=O)N2CCCCCC2)n1` stands more than 37.8 µg/mL; under `Clc1nc(NC2CCCC2)nc(N2CCOCC2)n1`, 5.1 µg/mL (≈ 18 µM).

`N#CN(Cc1ccccc1)Cc1ccccc1` gave a kinetic solubility of 18.6 µg/mL (≈ 83.7 µM).

For the compound `C=C(C)C(=O)OCC(=O)NCc1ccccc1`, the solubility (kinetic) worked out at 27.2 µg/mL (≈ 117 µM).

In turn, `CC(NC(=O)COC(=O)CN1C(=O)C2CCCCC2C1=O)c1ccccc1` (configuration not stated) displayed a kinetic solubility of more than 55.9 µg/mL.
